Test results reported in patent US8916595B2, “Plant disease controlling composition and method for controlling plant disease” (Sumitomo Chemical Company, Limited, priority 2010, dated 2014).

System: gray mold fungus (Botrytis cinerea)
Test: Cucumber leaf disk preventive test against gray mold fungus (spray inoculation, onset area rate)
Type: in vivo
Details: single compound, 15° C., four days
Method: True leaf of cucumber is punched out with cork borer to 13 mm in diameter to prepare a leaf disk. In 24 well microwell plate that is dispensed with 1 ml 0.8% water agar, the leaf disk is placed such that the upper side of the leaf is in an upward direction. Thereto is added 20 micro liter a testing solution prepared by mixing a dimethyl sulfoxide solution of the present compound (racemate) and a dimethyl sulfoxide solution of benthiavalicarb to a predetermined concentration to treat the leaf disk.
After confirming that the testing medical solution is dried, conidium of gray mold fungus (Botrytis cinerea) is suspended into potato dextrose broth (DIFCO) in a density of about 10^5 conidium/mL and is then subjected to a spray inoculation. After leaving to stand the leaf disk in a growth chamber set up at 15° C. for four days, an onset area on the leaf is measured and then calculated an onset area rate (hereinafter, referred to as an onset area rate of treated group).
The same operation is carried out with 20 micro liter water instead of 20 micro liter a testing medicine solution to calculate an onset area rate (hereinafter, referred to an onset area rate of non-treated group).
A preventive value is calculated from the above onset area rate of treated group and the onset area rate of non-treated group by the following equation: Preventive value(%)=100×(A−B)/A
A: an onset area rate of treated group
B: an onset area rate of non-treated group
The same operations as described in Test Example 1 are carried out with iprovalicarb instead of benthiavalicarb, so as to calculate a preventive value.
Also for comparison, the same operations as described in Test Example 1 are carried out with the exception that the testing medicine solution is substituted with a predetermined concentration of each dimethyl sulfoxide solution of the present compound (racemate) or iprovalicarb, so as to calculate respective preventive values.
For comparison, the same operations as described in Test Example 1 are carried out with the exception that the testing medicine solution is substituted with a predetermined concentration of a dimethyl sulfoxide solution of benthiavalicarb, so as to calculate a preventive value.

[1] = treatment concentration 0.5 ppm
[2] = treatment concentration 5.0 ppm

Row | Compound | preventive value (%) [1] | preventive value (%) [2]
1 | Cc1ccc(C(C)NC(=O)[C@@H](NC(=O)OC(C)C)C(C)C)cc1 (stereo partly shown) [iprovalicarb] | 0% | 15%
2 | CC(C)[C@H](NC(=O)O)C(=O)N[C@H](C)c1nc2ccc(F)cc2s1 [benthiavalicarb] | 0% | 15%
